Results taken from US20240158446A1, “CYCLIC COMPOUND HAVING SELECTIVE INHIBITORY ACTION ON KRAS OVER HRAS AND NRAS” (CHUGAI SEIYAKU KABUSHIKI KAISHA, priority 2021, published 2024).
pIC50: −log10 of the molar value. *1 amine or outer side, *2 acyl side, *3 side chain or, on linkers, in order; H or OH if unused. Where a SMILES comes first, the peptide text is derived from it. Bridges are numbered along the chain shown (N, C = ends). [ ]: non-standard residue; d: D form. The star is where a group is joined. hPhe(3,5-F2-4-CF3) = N[C@@H](CCc1cc(F)c(C(F)(F)F)c(F)c1)C(=O)O; NPrPhe(4-CF3) = CCCN[C@@H](Cc1ccc(C(F)(F)F)cc1)C(=O)O; NMeGly(cPent) = CN[C@H](C(=O)O)C1CCCC1; X8 = C[C@@](N[*:1])(C(=O)[*:2])C1CC1; X11 = CCC[C@](C)(N[*:1])C(=O)[*:2]; Nva(3-Et) = CCC(CC)[C@H](N)C(=O)O; αMeF = C[C@](N)(Cc1ccccc1)C(=O)O; NMeD = CN[C@@H](CC(=O)O)C(=O)O; NMeL = CN[C@@H](CC(C)C)C(=O)O; αMeL = CC(C)C[C@](C)(N)C(=O)O; αMeV = CC(C)[C@](C)(N)C(=O)O; αMeS = C[C@](N)(CO)C(=O)O; Morpholide = C1CN(*)CCO1; Ac5c = NC1(C(=O)O)CCCC1; Aze = O=C(O)[C@@H]1CCN1; Sar = CNCC(=O)O; Allyl = C=CC*

How the values were obtained:
[1] = tested on: human lung cancer strain NCI-H441;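 note: cell proliferation inhibition after four days measured by CellTiter-Glo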
[2] = biological target: GDP-bound NRAS wild-type protein (Homo sapiens, UniProt P01111); experiment: Binding to NRAS by surface plasmon resonance (SPR), Single Cycle Kinetics; conditions: SPR, GDP-bound NRAS wild-type protein vs GDP-bound KRAS wild-type protein
GDP-bound NRAS wild-type protein, sequence (P01111 whole entry): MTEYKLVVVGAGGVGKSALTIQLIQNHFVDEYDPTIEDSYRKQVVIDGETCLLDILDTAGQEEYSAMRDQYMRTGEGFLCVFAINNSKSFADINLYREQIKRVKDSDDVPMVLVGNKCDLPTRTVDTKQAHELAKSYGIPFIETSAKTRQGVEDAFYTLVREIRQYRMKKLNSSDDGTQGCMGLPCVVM

[3] = biological target: GDP-bound HRAS wild-type protein (Homo sapiens, UniProt P01112); experiment: Binding to HRAS by surface plasmon resonance (SPR), Single Cycle Kinetics; conditions: SPR, GDP-bound HRAS wild-type protein vs GDP-bound KRAS wild-type protein
GDP-bound HRAS wild-type protein, sequence (P01112 whole entry): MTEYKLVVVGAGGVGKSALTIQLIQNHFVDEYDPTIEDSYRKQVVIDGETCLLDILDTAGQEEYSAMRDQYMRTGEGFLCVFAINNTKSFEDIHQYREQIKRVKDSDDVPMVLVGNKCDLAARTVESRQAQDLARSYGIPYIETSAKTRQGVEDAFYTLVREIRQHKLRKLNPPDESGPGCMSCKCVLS

SMILES	pIC50 [1]	NRAS/KRAS (ratio of KD value with respect to NRAS to KD value with respect to KRAS) [2]	HRAS/KRAS (ratio of KD value with respect to HRAS to KD value with respect to KRAS) [3]	NRAS/KRAS (ratio of KD value for NRAS to KD value for KRAS) [2]	HRAS/KRAS (ratio of KD value for HRAS to KD value for KRAS) [3]
CCO[C@@H]1C[C@H]2C(=O)NC3(CCC3)C(=O)N(C)[C@@H](C3CCCC3)C(=O)N(C)[C@H](C(=O)N3CCOCC3)CC(=O)N(C)[C@@H](Cc3ccccc3)C(=O)N[C@@H]([C@@H](C)CC)C(=O)N(C)CC(=O)N(C)[C@H]3CCCCCN(C3=O)[C@@H](Cc3ccc(C(F)(F)F)cc3)C(=O)N(C)CC(=O)N[C@@H](CCc3cc(F)c(C(F)(F)F)c(F)c3)C(=O)N2C1 [PP0687]	7.36	B (a compound having 3 or more and less than 10 is denoted as B)	B (a compound having 3 or more and less than 10 is denoted as B)	–	–
CCCN1C(=O)CN(C)C(=O)[C@@H]2CCN2C(=O)[C@H]([C@@H](C)CC)NC(=O)[C@H](CC(C)C)N(C)C(=O)C[C@@H](C(=O)N2CCOCC2)N(C)C(=O)[C@H](C2CCCC2)N(C)C(=O)[C@](C)(C2CC2)NC(=O)[C@@H]2CCCN2C(=O)[C@H](CCc2cc(F)c(C(F)(F)F)c(F)c2)NC(=O)CN(C)C(=O)[C@@H]1Cc1ccc(C(F)(F)F)cc1 [PP0772] ([NMeL]I[Aze][Sar][NPrPhe(4-CF3)][Sar][hPhe(3,5-F2-4-CF3)]P[X8][NMeGly(cPent)][NMeD]-Morpholide; lactam N-11)	6.36	B (a compound having 3 or more and less than 10 is denoted as B)	B (a compound having 3 or more and less than 10 is denoted as B)	–	–
CCCN1C(=O)CN(C)C(=O)[C@@H]2CCN2C(=O)[C@H]([C@@H](C)CC)NC(=O)[C@H](CC(C)C)N(C)C(=O)C[C@@H](C(=O)N2CCOCC2)N(C)C(=O)[C@H](C2CCCC2)N(C)C(=O)[C@](C)(C(C)C)NC(=O)[C@@H]2CCCN2C(=O)[C@H](CCc2cc(F)c(C(F)(F)F)c(F)c2)NC(=O)CN(C)C(=O)[C@@H]1Cc1ccc(C(F)(F)F)cc1 [PP0773] ([NMeL]I[Aze][Sar][NPrPhe(4-CF3)][Sar][hPhe(3,5-F2-4-CF3)]P[αMeV][NMeGly(cPent)][NMeD]-Morpholide; lactam N-11)	6.77	B (a compound having 3 or more and less than 10 is denoted as B)	B (a compound having 3 or more and less than 10 is denoted as B)	–	–
CCCN1C(=O)CN(C)C(=O)[C@@H]2CCN2C(=O)[C@H]([C@@H](C)CC)NC(=O)[C@H](CC(C)C)N(C)C(=O)C[C@@H](C(=O)N2CCOCC2)N(C)C(=O)[C@H](C2CCCC2)N(C)C(=O)[C@](C)(CCC)NC(=O)[C@@H]2CCCN2C(=O)[C@H](CCc2cc(F)c(C(F)(F)F)c(F)c2)NC(=O)CN(C)C(=O)[C@@H]1Cc1ccc(C(F)(F)F)cc1 [PP0775] ([NMeL]I[Aze][Sar][NPrPhe(4-CF3)][Sar][hPhe(3,5-F2-4-CF3)]P[X11][NMeGly(cPent)][NMeD]-Morpholide; lactam N-11)	6.38	B (a compound having 3 or more and less than 10 is denoted as B)	B (a compound having 3 or more and less than 10 is denoted as B)	–	–
CCCN1C(=O)CN(C)C(=O)[C@@H]2CCN2C(=O)[C@H]([C@@H](C)CC)NC(=O)[C@H](CC(C)C)N(C)C(=O)C[C@@H](C(=O)N2CCOCC2)N(C)C(=O)[C@H](C2CCCC2)N(C)C(=O)[C@](C)(CC(C)C)NC(=O)[C@@H]2CCCN2C(=O)[C@H](CCc2cc(F)c(C(F)(F)F)c(F)c2)NC(=O)CN(C)C(=O)[C@@H]1Cc1ccc(C(F)(F)F)cc1 [PP0776] ([NMeL]I[Aze][Sar][NPrPhe(4-CF3)][Sar][hPhe(3,5-F2-4-CF3)]P[αMeL][NMeGly(cPent)][NMeD]-Morpholide; lactam N-11)	6.23	B (a compound having 3 or more and less than 10 is denoted as B)	B (a compound having 3 or more and less than 10 is denoted as B)	–	–
CCCN1C(=O)CN(C)C(=O)[C@@H]2CCN2C(=O)[C@H]([C@@H](C)CC)NC(=O)[C@H](CC(C)C)N(C)C(=O)C[C@@H](C(=O)N2CCOCC2)N(C)C(=O)[C@H](C2CCCC2)N(C)C(=O)[C@](C)(COC)NC(=O)[C@@H]2CCCN2C(=O)[C@H](CCc2cc(F)c(C(F)(F)F)c(F)c2)NC(=O)CN(C)C(=O)[C@@H]1Cc1ccc(C(F)(F)F)cc1 [PP0779] ([NMeL]I[Aze][Sar][NPrPhe(4-CF3)][Sar][hPhe(3,5-F2-4-CF3)]P[αMeS](Me)[NMeGly(cPent)][NMeD]-Morpholide; lactam N-11)	6.44	B (a compound having 3 or more and less than 10 is denoted as B)	B (a compound having 3 or more and less than 10 is denoted as B)	–	–
C=CCOC[C@]1(C)NC(=O)[C@@H]2CCCN2C(=O)[C@H](CCc2cc(F)c(C(F)(F)F)c(F)c2)NC(=O)CN(C)C(=O)[C@H](Cc2ccc(C(F)(F)F)cc2)N(CCC)C(=O)CN(C)C(=O)[C@@H]2CCN2C(=O)[C@H]([C@@H](C)CC)NC(=O)[C@H](CC(C)C)N(C)C(=O)C[C@@H](C(=O)N2CCOCC2)N(C)C(=O)[C@H](C2CCCC2)N(C)C1=O [PP0780] ([NMeL]I[Aze][Sar][NPrPhe(4-CF3)][Sar][hPhe(3,5-F2-4-CF3)]P[αMeS](Allyl)[NMeGly(cPent)][NMeD]-Morpholide; lactam N-11)	6.28	B (a compound having 3 or more and less than 10 is denoted as B)	B (a compound having 3 or more and less than 10 is denoted as B)	–	–
CCCN1C(=O)CN(C)C(=O)[C@@H]2CCN2C(=O)[C@H](C(CC)CC)NC(=O)[C@H](CC(C)C)N(C)C(=O)C[C@@H](C(=O)N2CCOCC2)N(C)C(=O)[C@H](C2CCCC2)N(C)C(=O)C2(CCCC2)NC(=O)[C@@H]2CCCN2C(=O)[C@H](CCc2cc(F)c(C(F)(F)F)c(F)c2)NC(=O)CN(C)C(=O)[C@@H]1Cc1ccc(C(F)(F)F)cc1 [PP0785] ([NMeL][Nva(3-Et)][Aze][Sar][NPrPhe(4-CF3)][Sar][hPhe(3,5-F2-4-CF3)]P[Ac5c][NMeGly(cPent)][NMeD]-Morpholide; lactam N-11)	6.49	B (a compound having 3 or more and less than 10 is denoted as B)	B (a compound having 3 or more and less than 10 is denoted as B)	–	–
CC[C@H](C)[C@@H]1NC(=O)[C@H](CC(C)C)N(C)C(=O)C[C@@H](C(=O)N2CCOCC2)N(C)C(=O)[C@H](C2CCCC2)N(C)C(=O)C2(CCC2)NC(=O)[C@@H]2[C@H]3C[C@H]3CN2C(=O)[C@H](CCc2cc(F)c(C(F)(F)F)c(F)c2)NC(=O)CN(C)C(=O)[C@H](Cc2ccc(C(F)(F)F)cc2)N2CCCCC[C@@H](C2=O)N(C)C(=O)CN(C)C1=O [PP0819]	7.12	–	–	A (a compound having 10 or more and less than 20 is denoted as A)	B (a compound having 3 or more and less than 10 is denoted as B)

Continued, in another order:

pIC50 [1]	SMILES	NRAS/KRAS (ratio of KD value with respect to NRAS to KD value with respect to KRAS) [2]	HRAS/KRAS (ratio of KD value with respect to HRAS to KD value with respect to KRAS) [3]	NRAS/KRAS (ratio of KD value for NRAS to KD value for KRAS) [2]	HRAS/KRAS (ratio of KD value for HRAS to KD value for KRAS) [3]
7.71	CCO[C@@H]1C[C@H]2C(=O)NC3(CCC3)C(=O)N(C)[C@@H](C3CCCC3)C(=O)N(C)[C@H](C(=O)N(C)C)CC(=O)N(C)[C@@H](Cc3ccccc3)C(=O)N[C@@H]([C@@H](C)CC)C(=O)N(C)CC(=O)N(C)[C@H]3CCCCCN(C3=O)[C@@H](Cc3ccc(C(F)(F)F)cc3)C(=O)N(C)CC(=O)N[C@@H](CCc3cc(F)c(C(F)(F)F)c(F)c3)C(=O)N2C1 [PP0672]	B (a compound having 3 or more and less than 10 is denoted as B)	B (a compound having 3 or more and less than 10 is denoted as B)	–	–
7.37	CCO[C@@H]1C[C@H]2C(=O)NC3(CCC3)C(=O)N(C)[C@@H](C3CCCC3)C(=O)N(C)[C@H](C(=O)N3CCOCC3)CC(=O)N(C)[C@@H](Cc3cccnc3)C(=O)N[C@@H]([C@@H](C)CC)C(=O)N(C)CC(=O)N(C)[C@H]3CCCCN(C3=O)[C@@H](Cc3ccc(C(F)(F)F)cc3)C(=O)N(C)CC(=O)N[C@@H](CCc3cc(F)c(C(F)(F)F)c(F)c3)C(=O)N2C1 [PP0718]	C (A compound having a KD ratio of 0.1 or more and less than 3 is denoted as C)	B (a compound having 3 or more and less than 10 is denoted as B)	–	–
7.08	C=CCOC[C@]1(C)NC(=O)[C@@H]2CCCN2C(=O)[C@H](CCc2cc(F)c(C(F)(F)F)c(F)c2)NC(=O)CN(C)C(=O)[C@H](Cc2ccc(C(F)(F)F)cc2)N(CCC)C(=O)CN(C)C(=O)CN(C)C(=O)[C@H]([C@@H](C)CC)NC(=O)[C@H](CC(C)C)N(C)C(=O)C[C@@H](C(=O)N2CCOCC2)N(C)C(=O)[C@H](C2CCCC2)N(C)C1=O [PP0763] ([NMeL]I[Sar][Sar][NPrPhe(4-CF3)][Sar][hPhe(3,5-F2-4-CF3)]P[αMeS](Allyl)[NMeGly(cPent)][NMeD]-Morpholide; lactam N-11)	B (a compound having 3 or more and less than 10 is denoted as B)	B (a compound having 3 or more and less than 10 is denoted as B)	–	–
6.26	CCCN1C(=O)CN(C)C(=O)[C@@H]2CCN2C(=O)[C@H]([C@@H](C)CC)NC(=O)[C@H](CC(C)C)N(C)C(=O)C[C@@H](C(=O)N2CCOCC2)N(C)C(=O)[C@H](C2CCCC2)N(C)C(=O)[C@](C)(Cc2ccccc2)NC(=O)[C@@H]2CCCN2C(=O)[C@H](CCc2cc(F)c(C(F)(F)F)c(F)c2)NC(=O)CN(C)C(=O)[C@@H]1Cc1ccc(C(F)(F)F)cc1 [PP0778] ([NMeL]I[Aze][Sar][NPrPhe(4-CF3)][Sar][hPhe(3,5-F2-4-CF3)]P[αMeF][NMeGly(cPent)][NMeD]-Morpholide; lactam N-11)	B (a compound having 3 or more and less than 10 is denoted as B)	B (a compound having 3 or more and less than 10 is denoted as B)	–	–
